“And” between values parts separate entries of the source, which are not always exact repeats. Equal values may be shown once.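 Each compound was tested at five concentrations against cells in 96-well plates for 48 hours. GI50 marks 50% less growth. Definition used: TGI = concentration required for complete inhibition of growth.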

Some test systems named below: SR leukemia; SK-OV-3 ovarian; SK-MEL-28 melanoma; NCI/ADR-RES ovarian; UO-31 renal; MALME-3M melanoma; UACC-257 melanoma; LOX IMVI melanoma; KM12 colon; NCI-H460 lung.
What all share (assay): growth of human tumour cells (NCI), 48 h

For `NC1=C(O)C(=O)C(c2c[nH]c3ccc(OCc4ccccc4)cc23)O1` (stereo not drawn), the TGI with SR leukemia, with SK-OV-3 ovarian, in the assay with SK-MEL-28 melanoma, with NCI/ADR-RES ovarian, in the assay on UO-31 renal and with MALME-3M melanoma was > 100 µM in each case. For the same molecule, the TGI in the assay on UACC-257 melanoma, in the assay on LOX IMVI melanoma, in the assay on KM12 colon and in the assay on NCI-H460 lung was > 100 µM each time.

In the case of `N=C1C=C(N)C(=O)c2ccccc21`, the GI50 in the assay with SR leukemia is 0.256 µM; in the assay on SK-OV-3 ovarian it was 1.51 µM; in the assay with SK-MEL-28 melanoma, 0.496 µM; in the assay on NCI/ADR-RES ovarian it was 0.296 µM; in the assay on UO-31 renal, 0.153 µM; with MALME-3M melanoma, 0.173 µM. In addition, the GI50 is 0.161 µM with UACC-257 melanoma, 0.17 µM with LOX IMVI melanoma, 0.322 µM in the assay on KM12 colon and 1.81 µM with NCI-H460 lung. The TGI was found to be 0.667 µM in the assay with SR leukemia; 2.86 µM in the assay with SK-OV-3 ovarian; 1.64 µM in the assay with SK-MEL-28 melanoma; 1.01 µM in the assay with NCI/ADR-RES ovarian; 0.32 µM in the assay on UO-31 renal; 0.321 µM with MALME-3M melanoma. In addition, the TGI with UACC-257 melanoma worked out at 0.306 µM; in the assay with LOX IMVI melanoma it was 0.421 µM; in the assay with KM12 colon, 1.26 µM; with NCI-H460 lung, 4.01 µM.

With `Cc1cc2nc(-c3ccc(O)c(O)c3)n(Cc3ccc(O)c(O)c3)c2cc1C`, the GI50 is 4.18 µM in the assay on SR leukemia; > 100 µM in the assay on SK-OV-3 ovarian; 87.6 µM in the assay on SK-MEL-28 melanoma; > 100 µM in the assay with NCI/ADR-RES ovarian; 64.3 µM in the assay on UO-31 renal; 27.2 µM in the assay with MALME-3M melanoma. Moreover, the GI50 in the assay with UACC-257 melanoma was 36 µM; in the assay with LOX IMVI melanoma, 13.1 µM; in the assay with KM12 colon it was 23.5 µM; in the assay on NCI-H460 lung, 13.4 µM. Further, the TGI in the assay with SR leukemia is 19.5 µM; in the assay on SK-OV-3 ovarian it was > 100 µM; with SK-MEL-28 melanoma, > 100 µM; in the assay with NCI/ADR-RES ovarian, > 100 µM; in the assay with UO-31 renal it was > 100 µM; in the assay on MALME-3M melanoma, > 100 µM. Also, the TGI in the assay on UACC-257 melanoma is 95.9 µM; in the assay with LOX IMVI melanoma, 28.4 µM; with KM12 colon, > 100 µM; with NCI-H460 lung it was 43.1 µM.

Take `COC(=O)Nc1nc2ccc(C(=O)c3cccs3)cc2[nH]1`: the GI50 is 0.019 µM and 0.0327 µM with SR leukemia; 0.347 µM in the assay on SK-OV-3 ovarian; 0.376 µM in the assay with SK-MEL-28 melanoma; 0.0388 µM and 0.0664 µM in the assay with NCI/ADR-RES ovarian; 3.23 µM in the assay with UO-31 renal; 0.296 µM with MALME-3M melanoma. The GI50 in the assay on UACC-257 melanoma is > 100 µM; in the assay with LOX IMVI melanoma, 0.536 µM; with KM12 colon, 0.0541 µM; in the assay with NCI-H460 lung, 0.239 µM. For the same molecule, the TGI was 5.98 µM in the assay on SR leukemia; 61.8 µM and > 100 µM in the assay on SK-MEL-28 melanoma; > 100 µM with NCI/ADR-RES ovarian; 38.2 µM and > 100 µM in the assay on UO-31 renal; 43.5 µM and > 100 µM with MALME-3M melanoma; > 100 µM in the assay on UACC-257 melanoma. Further, the TGI in the assay with LOX IMVI melanoma was > 100 µM; in the assay on KM12 colon, 41 µM and > 100 µM.

Turning to `Cc1nc2sc(C(=O)Nc3ccccc3)c(N)c2cc1C(=O)c1ccccc1`, the GI50 with SR leukemia is 0.923 µM; in the assay with SK-OV-3 ovarian, 2.35 µM; in the assay with SK-MEL-28 melanoma, 8.82 µM; with NCI/ADR-RES ovarian, 1.9 µM; in the assay with UO-31 renal it was 3.58 µM; in the assay on MALME-3M melanoma, 5.5 µM. For the same molecule, the GI50 with UACC-257 melanoma was 31.5 µM; with LOX IMVI melanoma it was 3 µM; in the assay on KM12 colon, 2.04 µM; with NCI-H460 lung, 1.66 µM. For the same molecule, the TGI is 18.1 µM in the assay with SR leukemia; > 50 µM with SK-OV-3 ovarian; > 50 µM in the assay on SK-MEL-28 melanoma; > 50 µM in the assay on NCI/ADR-RES ovarian; > 50 µM with UO-31 renal; > 50 µM in the assay on MALME-3M melanoma. Besides, the TGI in the assay on UACC-257 melanoma, with LOX IMVI melanoma, in the assay on KM12 colon and with NCI-H460 lung was > 50 µM in each case.

Regarding `CN(C)Cc1cc(C(C)(C)C)cc(CN(C)C)c1O`, the TGI in the assay with SR leukemia is > 100 µM; with SK-OV-3 ovarian, > 100 µM; with SK-MEL-28 melanoma it was > 100 µM; with NCI/ADR-RES ovarian it was > 100 µM; with UO-31 renal it was 51.6 µM; in the assay on MALME-3M melanoma, > 100 µM. The TGI in the assay with UACC-257 melanoma, in the assay with LOX IMVI melanoma, with KM12 colon and in the assay on NCI-H460 lung was > 100 µM in each case.

Turning to `COc1cc2c(=O)n(CC3CCCCC3)c3c4cc[nH]c4ncc3c2cc1OC`, the GI50 in the assay with SR leukemia was 0.313 µM; with SK-OV-3 ovarian, 4.36 µM; with SK-MEL-28 melanoma, 7.25 µM; in the assay on NCI/ADR-RES ovarian, 3.74 µM; in the assay with UO-31 renal, 0.848 µM; with MALME-3M melanoma it was 6.33 µM. The GI50 in the assay on UACC-257 melanoma was 23.8 µM; in the assay with LOX IMVI melanoma, 2.3 µM; in the assay on KM12 colon, 0.0362 µM; in the assay with NCI-H460 lung it was 2.25 µM. Further, the TGI was > 50 µM in the assay on SR leukemia; 24.2 µM in the assay on SK-OV-3 ovarian; 31.2 µM in the assay on SK-MEL-28 melanoma; 34.5 µM in the assay with NCI/ADR-RES ovarian; 9.56 µM in the assay with UO-31 renal; 26.3 µM with MALME-3M melanoma. Moreover, the TGI is > 50 µM in the assay with UACC-257 melanoma, 14.3 µM in the assay with LOX IMVI melanoma, 34.9 µM with KM12 colon and 9.41 µM with NCI-H460 lung.

For the molecule `O=C(/C=C/c1ccc(Cl)cc1Cl)c1ccc(Cl)cc1Cl`, the GI50 in the assay on SR leukemia was 3.33 µM; with SK-OV-3 ovarian, 37.8 µM; with SK-MEL-28 melanoma it was 27.2 µM; in the assay on NCI/ADR-RES ovarian it was 25.1 µM; in the assay with UO-31 renal, 15 µM; with MALME-3M melanoma, 13.9 µM. Further, the GI50 in the assay with UACC-257 melanoma is 21.7 µM; in the assay with LOX IMVI melanoma it was 15.8 µM; with KM12 colon it was 13.5 µM; in the assay with NCI-H460 lung, 42.1 µM. Moreover, the TGI in the assay on SR leukemia was 14.9 µM; in the assay with SK-OV-3 ovarian, > 100 µM; in the assay with SK-MEL-28 melanoma it was > 74.4 µM; in the assay on NCI/ADR-RES ovarian, > 77.2 µM; in the assay with UO-31 renal it was > 44.8 µM; with MALME-3M melanoma, 35.6 µM. Also, the TGI in the assay with UACC-257 melanoma was 55.3 µM; in the assay with LOX IMVI melanoma, 30.1 µM; in the assay with KM12 colon, 30.4 µM; in the assay on NCI-H460 lung, > 100 µM.

The record behind these values is PubChem BioAssay (NCI).
